Results on 3 compounds are retold here after ChEMBL document CHEMBL3046614, “Overexpression of the sterol 14α-demethylase gene (MgCYP51) in Mycosphaerella graminicola isolates confers a novel azole fungicide sensitivity phenotype” (Pest Manag Sci, 2012).

The structures appear in SMILES notation. In brackets after ≈: the same amount, converted by molar mass. Activity calls are given as the source filed them. The calls are words filed in the database; no cut-off is given here.

One experiment has as its system Zymoseptoria tritici. The experiment is described as follows: Fungicidal activity against Zymoseptoria tritici isolate TAG74-3 with 120 bp insertion expressing CYP51 variant with combination of L50S, S188N, I381V, deltaY459/G460 and N513K mutations inoculated on compound pre-treated wheat cultivar Riband seedlings assessed as fungal DNA level at 39.06 ppm measured 21 days post fungal inoculation. Format: functional.
For the compound `Fc1ccc([C@]2(Cn3cncn3)O[C@H]2c2ccccc2Cl)cc1` [EPOXICONAZOLE], the Activity was 9284 pg.

The subject of the next experiment is Zymoseptoria tritici. The experiment is described as follows: Fungicidal activity against Zymoseptoria tritici isolate R03-54 without 120 bp insertion expressing CYP51 variant with combination of L50S, S188N, I381V, deltaY459/G460 and N513K mutations assessed as fungal growth inhibition. Format: functional, organism-based.
For the compound `O=C(Nc1ccccc1-c1ccc(Cl)cc1)c1cccnc1Cl` [BOSCALID], the EC50 came to 0.766 µg/mL.

As to `Fc1ccc([C@]2(Cn3cncn3)O[C@H]2c2ccccc2Cl)cc1` [EPOXICONAZOLE], the EC50 is 0.092 µg/mL.

For the compound `CCCN(CCOc1c(Cl)cc(Cl)cc1Cl)C(=O)n1ccnc1` [PROCHLORAZ], the concentration giving a half-maximal response (EC50) came to 0.025 µg/mL.

The test system of a further experiment is Zymoseptoria tritici. The experiment is described as follows: Fungicidal activity against Zymoseptoria tritici isolate R03-29 without 120 bp insertion expressing CYP51 variant with combination of L50S, S188N, I381V, deltaY459/G460 and N513K mutations assessed as fungal growth inhibition. Format: functional, organism-based.
`O=C(Nc1ccccc1-c1ccc(Cl)cc1)c1cccnc1Cl` [BOSCALID]: the half-maximal effective concentration (EC50) was 0.21 µg/mL.

With `Fc1ccc([C@]2(Cn3cncn3)O[C@H]2c2ccccc2Cl)cc1` [EPOXICONAZOLE], the half-maximal effective concentration (EC50) is 0.067 µg/mL.

With `CCCN(CCOc1c(Cl)cc(Cl)cc1Cl)C(=O)n1ccnc1` [PROCHLORAZ], the concentration for a half-maximal effect (EC50) came out at 0.077 µg/mL.

Another experiment concerns Zymoseptoria tritici. The experiment is described as follows: Fungicidal activity against Zymoseptoria tritici isolate TAG74-3 with 120 bp insertion expressing CYP51 variant with combination of L50S, S188N, I381V, deltaY459/G460 and N513K mutations inoculated on compound pre-treated wheat cultivar Riband seedlings assessed as pycnidia formation at doses > 1/16 recommended field rate measured 21 days post fungal inoculation. In kind it is functional, organism-based.
For `Fc1ccc([C@]2(Cn3cncn3)O[C@H]2c2ccccc2Cl)cc1` [EPOXICONAZOLE], the outcome was Active.

A further experiment concerns Zymoseptoria tritici. The experiment is described as follows: Fungicidal activity against Zymoseptoria tritici isolate TAG74-3 with 120 bp insertion expressing CYP51 variant with combination of L50S, S188N, I381V, deltaY459/G460 and N513K mutations inoculated on compound pre-treated wheat cultivar Riband seedlings assessed as fungal DNA level at doses > 1/16 recommended field rate measured 21 days post fungal inoculation. In kind it is functional, organism-based.
Consider `Fc1ccc([C@]2(Cn3cncn3)O[C@H]2c2ccccc2Cl)cc1` [EPOXICONAZOLE], for which the result was Active.

A further experiment has as its system Zymoseptoria tritici. The experiment is described as follows: Fungicidal activity against Zymoseptoria tritici isolate OP7 with 120 bp insertion expressing CYP51 variant with combination of L50S, S188N, I381V, deltaY459/G460 and N513K mutations inoculated on compound pre-treated wheat cultivar Riband seedlings assessed as fungal DNA level at doses > 1/16 recommended field rate measured 21 days post fungal inoculation. In kind it is functional, organism-based.
Consider `Fc1ccc([C@]2(Cn3cncn3)O[C@H]2c2ccccc2Cl)cc1` [EPOXICONAZOLE], for which the result was Active.

For a further experiment, the system named is Zymoseptoria tritici. The experiment is described as follows: Fungicidal activity against Zymoseptoria tritici isolate TAG1-18 with 120 bp insertion expressing CYP51 variant with combination of L50S, S188N, I381V, deltaY459/G460 and N513K mutations assessed as fungal growth inhibition. Format: functional, organism-based.
In the case of `O=C(Nc1ccccc1-c1ccc(Cl)cc1)c1cccnc1Cl` [BOSCALID], the EC50 was 0.976 µg/mL.

For `Fc1ccc([C@]2(Cn3cncn3)O[C@H]2c2ccccc2Cl)cc1` [EPOXICONAZOLE], the EC50 is 0.911 µg/mL.

Turning to `CCCN(CCOc1c(Cl)cc(Cl)cc1Cl)C(=O)n1ccnc1` [PROCHLORAZ], the half-maximal effective concentration (EC50) came to 0.294 µg/mL.

In a further experiment the test system is Zymoseptoria tritici. Put plainly: Fungicidal activity against Zymoseptoria tritici isolate R10-13 without 120 bp insertion expressing CYP51 variant with combination of L50S, S188N, I381V, deltaY459/G460 and N513K mutations assessed as fungal growth inhibition. Format: functional, organism-based.
Regarding `Fc1ccc([C@]2(Cn3cncn3)O[C@H]2c2ccccc2Cl)cc1` [EPOXICONAZOLE], the concentration for a half-maximal effect (EC50) turned out to be 0.091 µg/mL.

With `CCCN(CCOc1c(Cl)cc(Cl)cc1Cl)C(=O)n1ccnc1` [PROCHLORAZ], the EC50 amounted to 0.049 µg/mL.

The test system of another experiment is Zymoseptoria tritici. Put plainly: Fungicidal activity against Zymoseptoria tritici isolate OP6 without 120 bp insertion expressing CYP51 variant with combination of L50S, S188N, I381V, deltaY459/G460 and N513K mutations assessed as fungal growth inhibition. In kind it is functional, organism-based.
Take `O=C(Nc1ccccc1-c1ccc(Cl)cc1)c1cccnc1Cl` [BOSCALID]: the 50% effective concentration (EC50) worked out at 0.841 µg/mL.

With `Fc1ccc([C@]2(Cn3cncn3)O[C@H]2c2ccccc2Cl)cc1` [EPOXICONAZOLE], the concentration giving a half-maximal response (EC50) is 0.085 µg/mL.

`CCCN(CCOc1c(Cl)cc(Cl)cc1Cl)C(=O)n1ccnc1` [PROCHLORAZ]: the concentration giving a half-maximal response (EC50) stood at 0.019 µg/mL.

The next experiment concerns Zymoseptoria tritici. Put plainly: Fungicidal activity against Zymoseptoria tritici isolate OP7 with 120 bp insertion expressing CYP51 variant with combination of L50S, S188N, I381V, deltaY459/G460 and N513K mutations assessed as fungal growth inhibition. Format: functional, organism-based.
`O=C(Nc1ccccc1-c1ccc(Cl)cc1)c1cccnc1Cl` [BOSCALID]: the EC50 was 0.808 µg/mL.

On to `Fc1ccc([C@]2(Cn3cncn3)O[C@H]2c2ccccc2Cl)cc1` [EPOXICONAZOLE], for which the EC50 was found to be 0.819 µg/mL.

Consider `CCCN(CCOc1c(Cl)cc(Cl)cc1Cl)C(=O)n1ccnc1` [PROCHLORAZ], for which the EC50 came to 0.229 µg/mL.

Another experiment relates to Zymoseptoria tritici. Put plainly: Fungicidal activity against Zymoseptoria tritici isolate OP7 with 120 bp insertion expressing CYP51 variant with combination of L50S, S188N, I381V, deltaY459/G460 and N513K mutations inoculated on compound pre-treated wheat cultivar Riband seedlings assessed as fungal DNA level at 39.06 ppm measured 21 days post fungal inoculation. In kind it is functional.
For the compound `Fc1ccc([C@]2(Cn3cncn3)O[C@H]2c2ccccc2Cl)cc1` [EPOXICONAZOLE], the Activity was 1600 pg.

In the next experiment the test system is Zymoseptoria tritici. The experiment is described as follows: Fungicidal activity against Zymoseptoria tritici isolate R10-13 without 120 bp insertion expressing CYP51 variant with combination of L50S, S188N, I381V, deltaY459/G460 and N513K mutations inoculated on compound pre-treated wheat cultivar Riband seedlings assessed as fungal DNA level at 39.06 ppm measured 21 days post fungal inoculation. Format: functional.
With `Fc1ccc([C@]2(Cn3cncn3)O[C@H]2c2ccccc2Cl)cc1` [EPOXICONAZOLE], the Activity is 400 pg.

For a further experiment, the system named is Zymoseptoria tritici. Put plainly: Fungicidal activity against Zymoseptoria tritici isolate OP6 without 120 bp insertion expressing CYP51 variant with combination of L50S, S188N, I381V, deltaY459/G460 and N513K mutations inoculated on compound pre-treated wheat cultivar Riband seedlings assessed as fungal DNA level at 39.06 ppm measured 21 days post fungal inoculation. In kind it is functional.
Consider `Fc1ccc([C@]2(Cn3cncn3)O[C@H]2c2ccccc2Cl)cc1` [EPOXICONAZOLE], for which the Activity is 14 pg.

Another experiment concerns Zymoseptoria tritici. The experiment is described as follows: Fungicidal activity against Zymoseptoria tritici isolate OP7 with 120 bp insertion expressing CYP51 variant with combination of L50S, S188N, I381V, deltaY459/G460 and N513K mutations inoculated on compound pre-treated wheat cultivar Riband seedlings assessed as pycnidia formation at doses > 1/16 recommended field rate measured 21 days post fungal inoculation. Format: functional, organism-based.
In the case of `Fc1ccc([C@]2(Cn3cncn3)O[C@H]2c2ccccc2Cl)cc1` [EPOXICONAZOLE], the outcome was Active.

The subject of a further experiment is Zymoseptoria tritici. Put plainly: Fungicidal activity against Zymoseptoria tritici isolate TAG74-3 with 120 bp insertion expressing CYP51 variant with combination of L50S, S188N, I381V, deltaY459/G460 and N513K mutations assessed as fungal growth inhibition. Format: functional, organism-based.
Consider `O=C(Nc1ccccc1-c1ccc(Cl)cc1)c1cccnc1Cl` [BOSCALID], for which the concentration giving a half-maximal response (EC50) stood at 0.719 µg/mL.

With `Fc1ccc([C@]2(Cn3cncn3)O[C@H]2c2ccccc2Cl)cc1` [EPOXICONAZOLE], the EC50 came out at 1.41 µg/mL.

As to `CCCN(CCOc1c(Cl)cc(Cl)cc1Cl)C(=O)n1ccnc1` [PROCHLORAZ], the EC50 was 0.624 µg/mL.

A further experiment relates to Zymoseptoria tritici. The experiment is described as follows: Fungicidal activity against Zymoseptoria tritici isolate OP7 with 120 bp insertion expressing CYP51 variant with combination of L50S, S188N, I381V, deltaY459/G460 and N513K mutations inoculated on compound pre-treated wheat cultivar Riband seedlings assessed as pycnidia formation at 39.06 ppm measured 21 days post fungal inoculation. Format: functional, organism-based.
With `Fc1ccc([C@]2(Cn3cncn3)O[C@H]2c2ccccc2Cl)cc1` [EPOXICONAZOLE], the outcome was inactive.

In the next experiment the test system is Zymoseptoria tritici. Put plainly: Fungicidal activity against Zymoseptoria tritici isolate TAG74-3 with 120 bp insertion expressing CYP51 variant with combination of L50S, S188N, I381V, deltaY459/G460 and N513K mutations inoculated on compound pre-treated wheat cultivar Riband seedlings assessed as pycnidia formation at 39.06 ppm measured 21 days post fungal inoculation. Format: functional, organism-based.
Regarding `Fc1ccc([C@]2(Cn3cncn3)O[C@H]2c2ccccc2Cl)cc1` [EPOXICONAZOLE], the outcome was inactive.

In a further experiment the test system is Zymoseptoria tritici. Put plainly: Fungicidal activity against Zymoseptoria tritici isolate IPO323 without 120 bp insertion expressing wild type CYP51 assessed as fungal growth inhibition. Format: functional, organism-based.
With `O=C(Nc1ccccc1-c1ccc(Cl)cc1)c1cccnc1Cl` [BOSCALID], the concentration giving a half-maximal response (EC50) amounted to 0.554 µg/mL (≈ 1.61 µM).

`Fc1ccc([C@]2(Cn3cncn3)O[C@H]2c2ccccc2Cl)cc1` [EPOXICONAZOLE]: the concentration giving a half-maximal response (EC50) was found to be 0.0015 µg/mL (≈ 0.00455 µM).

Turning to `CCCN(CCOc1c(Cl)cc(Cl)cc1Cl)C(=O)n1ccnc1` [PROCHLORAZ], the concentration for a half-maximal effect (EC50) was determined as 0.015 µg/mL (≈ 0.0398 µM).

In the next experiment the test system is Zymoseptoria tritici. The experiment is described as follows: Fungicidal activity against Zymoseptoria tritici isolate V18 with 120 bp insertion expressing CYP51 variant with combination of L50S, S188N, I381V, deltaY459/G460 and N513K mutations assessed as fungal growth inhibition. In kind it is functional, organism-based.
`Fc1ccc([C@]2(Cn3cncn3)O[C@H]2c2ccccc2Cl)cc1` [EPOXICONAZOLE]: the concentration for a half-maximal effect (EC50) is 0.759 µg/mL.

Turning to `CCCN(CCOc1c(Cl)cc(Cl)cc1Cl)C(=O)n1ccnc1` [PROCHLORAZ], the EC50 came out at 0.239 µg/mL.
